Results from patent US20260092071A1, “COMPOUNDS AND COMPOSITIONS AS SMARCA2/4 DEGRADERS AND USES THEREOF” (REGENTS OF THE UNIVERSITY OF MICHIGAN, priority 2022, published 2026).

How the values were obtained:
[1] = molecular target: SMARCA2 (Homo sapiens, UniProt P51531); assay: HiBit assay in engineered HT1080 CRISPR knock-in cell, 6 hrs (B series), SMARCA2; type: cell-based; conditions: 6 hrs incubation; for DC50: HT1080 CRISPR knock-in cells, read-out: SMARC A2 HT1080 HiBit DC50; for Dmax: HT-1080, HT1080 CRISPR knock-in cells, read-out: SMARC A2 HT1080 HiBit Dmax (%)
Sequence of SMARCA2 (P51531 whole entry): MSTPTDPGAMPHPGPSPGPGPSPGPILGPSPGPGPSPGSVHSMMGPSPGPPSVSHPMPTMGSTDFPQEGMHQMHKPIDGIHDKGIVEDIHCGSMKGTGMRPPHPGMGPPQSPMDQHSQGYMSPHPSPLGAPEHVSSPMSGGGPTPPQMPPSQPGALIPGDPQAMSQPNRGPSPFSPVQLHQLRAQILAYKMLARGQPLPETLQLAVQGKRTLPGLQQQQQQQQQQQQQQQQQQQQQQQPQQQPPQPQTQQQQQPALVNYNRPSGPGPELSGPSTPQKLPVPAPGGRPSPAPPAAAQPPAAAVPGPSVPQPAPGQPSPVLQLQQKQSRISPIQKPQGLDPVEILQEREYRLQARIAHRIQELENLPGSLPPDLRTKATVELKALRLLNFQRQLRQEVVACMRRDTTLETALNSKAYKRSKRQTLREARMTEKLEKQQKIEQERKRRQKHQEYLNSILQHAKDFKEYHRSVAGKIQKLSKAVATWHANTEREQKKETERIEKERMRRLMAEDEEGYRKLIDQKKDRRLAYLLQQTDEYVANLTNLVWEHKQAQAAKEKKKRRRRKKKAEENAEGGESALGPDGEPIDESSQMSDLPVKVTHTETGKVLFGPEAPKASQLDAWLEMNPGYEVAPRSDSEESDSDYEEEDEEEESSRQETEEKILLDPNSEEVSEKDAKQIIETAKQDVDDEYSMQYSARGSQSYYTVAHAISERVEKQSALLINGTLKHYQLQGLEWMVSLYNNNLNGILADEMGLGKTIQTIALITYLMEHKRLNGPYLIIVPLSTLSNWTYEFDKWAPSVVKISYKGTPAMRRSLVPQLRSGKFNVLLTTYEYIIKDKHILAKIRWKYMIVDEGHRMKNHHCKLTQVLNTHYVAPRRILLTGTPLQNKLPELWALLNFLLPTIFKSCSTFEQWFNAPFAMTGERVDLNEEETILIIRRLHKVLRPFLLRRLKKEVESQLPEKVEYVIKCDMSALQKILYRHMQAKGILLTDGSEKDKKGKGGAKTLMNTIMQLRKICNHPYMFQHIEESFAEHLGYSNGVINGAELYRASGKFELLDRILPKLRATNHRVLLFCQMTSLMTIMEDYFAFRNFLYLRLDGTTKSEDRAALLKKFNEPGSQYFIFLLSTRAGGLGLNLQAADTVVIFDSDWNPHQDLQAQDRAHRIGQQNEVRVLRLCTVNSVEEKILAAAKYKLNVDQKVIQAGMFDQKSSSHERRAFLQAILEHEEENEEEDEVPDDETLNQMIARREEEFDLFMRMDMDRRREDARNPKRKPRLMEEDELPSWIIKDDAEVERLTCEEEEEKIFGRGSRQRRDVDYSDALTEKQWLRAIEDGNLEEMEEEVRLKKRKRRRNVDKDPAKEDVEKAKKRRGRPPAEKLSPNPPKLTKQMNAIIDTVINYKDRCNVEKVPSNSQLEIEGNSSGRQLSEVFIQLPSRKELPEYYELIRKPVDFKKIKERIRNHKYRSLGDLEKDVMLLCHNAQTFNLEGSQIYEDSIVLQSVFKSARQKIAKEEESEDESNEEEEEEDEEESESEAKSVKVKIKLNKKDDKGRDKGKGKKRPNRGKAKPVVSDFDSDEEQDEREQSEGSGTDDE
In short: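 Remaining SMARCA2 protein measured as HiBiT luminescence after cell lysis with LgBiT plus lytic substrate. Engineered HT1080 knock-in cells (2000/well) were first treated 6 h at 37 °C with compound at a final 0.1% DMSO.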

[2] = molecular target: SMARCA4 (Homo sapiens, UniProt P51532); assay: HiBit assay in engineered HT1080 CRISPR knock-in cell, 6 hrs (B series), SMARCA4; type: cell-based; conditions: 6 hrs incubation; for DC50: HT1080 CRISPR knock-in cells, read-out: SMARC A4 HT1080 HiBit DC50; for Dmax: HT-1080, HT1080 CRISPR knock-in cells, read-out: SMARC A4 HT1080 HiBit Dmax(%)
Sequence of SMARCA4 (P51532 whole entry): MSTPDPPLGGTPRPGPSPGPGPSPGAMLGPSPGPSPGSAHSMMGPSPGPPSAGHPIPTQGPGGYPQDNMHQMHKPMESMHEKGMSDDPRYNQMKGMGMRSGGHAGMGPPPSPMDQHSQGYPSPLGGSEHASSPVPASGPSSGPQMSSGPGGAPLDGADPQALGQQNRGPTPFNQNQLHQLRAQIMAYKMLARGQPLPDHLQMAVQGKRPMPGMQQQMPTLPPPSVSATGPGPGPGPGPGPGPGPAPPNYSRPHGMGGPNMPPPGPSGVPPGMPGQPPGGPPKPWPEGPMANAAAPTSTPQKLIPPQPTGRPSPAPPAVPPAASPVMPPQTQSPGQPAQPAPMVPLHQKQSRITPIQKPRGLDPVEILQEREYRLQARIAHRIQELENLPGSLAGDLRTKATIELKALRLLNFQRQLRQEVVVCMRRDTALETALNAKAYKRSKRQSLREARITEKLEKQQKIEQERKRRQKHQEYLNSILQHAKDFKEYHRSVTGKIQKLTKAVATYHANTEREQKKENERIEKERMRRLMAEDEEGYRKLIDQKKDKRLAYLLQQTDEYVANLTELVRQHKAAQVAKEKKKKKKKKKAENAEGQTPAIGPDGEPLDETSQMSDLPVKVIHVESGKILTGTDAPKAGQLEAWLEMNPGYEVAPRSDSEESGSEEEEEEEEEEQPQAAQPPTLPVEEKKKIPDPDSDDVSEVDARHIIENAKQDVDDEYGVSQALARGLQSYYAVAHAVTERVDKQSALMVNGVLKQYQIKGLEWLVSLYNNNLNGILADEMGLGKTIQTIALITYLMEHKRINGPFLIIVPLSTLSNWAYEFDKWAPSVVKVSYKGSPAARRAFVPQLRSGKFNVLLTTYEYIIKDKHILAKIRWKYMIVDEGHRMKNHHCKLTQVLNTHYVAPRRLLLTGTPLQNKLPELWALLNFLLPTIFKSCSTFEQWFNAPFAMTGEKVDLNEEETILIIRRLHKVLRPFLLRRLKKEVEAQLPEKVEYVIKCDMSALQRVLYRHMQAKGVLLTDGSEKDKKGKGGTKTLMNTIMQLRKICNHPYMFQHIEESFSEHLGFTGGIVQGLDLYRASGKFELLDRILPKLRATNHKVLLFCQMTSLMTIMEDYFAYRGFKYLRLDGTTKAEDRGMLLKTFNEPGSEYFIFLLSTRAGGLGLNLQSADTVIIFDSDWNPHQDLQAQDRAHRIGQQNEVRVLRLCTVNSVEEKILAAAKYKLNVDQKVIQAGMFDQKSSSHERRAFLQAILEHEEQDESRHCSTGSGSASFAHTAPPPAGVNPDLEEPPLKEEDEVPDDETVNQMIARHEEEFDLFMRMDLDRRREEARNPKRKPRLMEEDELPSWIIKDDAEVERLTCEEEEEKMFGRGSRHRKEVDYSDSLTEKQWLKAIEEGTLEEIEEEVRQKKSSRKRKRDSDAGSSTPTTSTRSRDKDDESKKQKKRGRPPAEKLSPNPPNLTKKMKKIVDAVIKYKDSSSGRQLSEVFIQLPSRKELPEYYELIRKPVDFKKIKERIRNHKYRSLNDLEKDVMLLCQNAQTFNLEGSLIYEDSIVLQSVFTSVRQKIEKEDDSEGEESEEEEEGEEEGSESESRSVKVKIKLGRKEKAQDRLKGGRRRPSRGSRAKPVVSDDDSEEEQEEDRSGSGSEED
In short: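 Protein abundance is measured in HiBiT-tagged HT1080 CRISPR knock-in cells after a 6 hr compound treatment (0.1% DMSO) by lytic Nano-Glo HiBiT luminescence.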

Row | DC50 [1] [nM] | Dmax [1] [%] | DC50 [2] [nM] | Dmax [2] [%] | SMILES
1 | < 100 | > 90 | < 100 | 50 to 69 | CC#Cc1ccc([C@H](C)NC(=O)[C@@H]2C[C@@H](O)CN2C(=O)[C@H](C(C)C)n2cc([C@H]3CC[C@H](CN4CCC(c5ccc6c(c5)-n5c(nc(=O)c7c(Cl)cccc75)C6(C)C)CC4)CC3)nn2)cc1 [Compound B131, (2S,4R)-1-((S)-2-(4-((1r,4S)-4-((4-(4-chloro-7,7-dimethyl-5-oxo-5,7-dihydroindolo[1,2-a]quinazolin-10-yl)piperidin-1-yl)methyl)cyclohexyl)-1H-1,2,3-triazol-1-yl)-3-methylbutanoyl)-4-hydroxy-N-((S)-1-(4-(prop-1-yn-1-yl)phenyl)ethyl)pyrrolidine-2-carboxamide]
2 | < 100 | > 90 | 100 to 500 | 70 to 90 | Cc1ncsc1-c1ccc([C@H](C)NC(=O)[C@@H]2C[C@@H](O)CN2C(=O)[C@H](C(C)C)n2cc(CC3CCC(N4CCC(c5cccc6c5C(C)(C)c5nc(=O)c7c(Cl)cccc7n5-6)CC4)CC3)nn2)cc1 (stereo partly drawn) [Compound B132, (2S,4R)-1-((S)-2-(4-((4-(4-(4-chloro-7,7-dimethyl-5-oxo-5,7-dihydroindolo[1,2-a]quinazolin-8-yl)piperidin-1-yl)cyclohexyl)methyl)-1H-1,2,3-triazol-1-yl)-3-methylbutanoyl)-4-hydroxy-N—((S)-1-(4-(4-methylthiazol-5-yl)phenyl)ethyl)pyrrolidine-2-carboxamide]
3 | < 100 | > 90 | < 100 | 70 to 90 | Cc1nc(C)c(-c2ccc([C@H](C)NC(=O)[C@@H]3C[C@@H](O)CN3C(=O)[C@@H](n3cc([C@H]4CC[C@H](CN5CCN(c6ccc7c(c6)-n6c(nc(=O)c8c(Cl)cccc86)C7(C)C)CC5)CC4)nn3)C(C)(C)C)cc2)s1 [Compound B133, (2S,4R)-1-((S)-2-(4-((1r,4S)-4-((4-(4-chloro-7,7-dimethyl-5-oxo-5,7-dihydroindolo[1,2-a]quinazolin-10-yl)piperazin-1-yl)methyl)cyclohexyl)-1H-1,2,3-triazol-1-yl)-3,3-dimethylbutanoyl)-N-((S)-1-(4-(2,4-dimethylthiazol-5-yl)phenyl)ethyl)-4-hydroxypyrrolidine-2-carboxamide]
4 | < 100 | > 90 | < 100 | 50 to 69 | CC(=O)c1ccc([C@H](C)NC(=O)[C@@H]2C[C@@H](O)CN2C(=O)[C@H](C(C)C)n2cc([C@H]3CC[C@H](CN4CCC(c5ccc6c(c5)-n5c(nc(=O)c7c(Cl)cccc75)C6(C)C)CC4)CC3)nn2)cc1 [Compound B134, (2S,4R)-N-((S)-1-(4-acetylphenyl)ethyl)-1-((S)-2-(4-((1r,4S)-4-((4-(4-chloro-7,7-dimethyl-5-oxo-5,7-dihydroindolo[1,2-a]quinazolin-10-yl)piperidin-1-yl)methyl)cyclohexyl)-1H-1,2,3-triazol-1-yl)-3-methylbutanoyl)-4-hydroxypyrrolidine-2-carboxamide]
5 | < 100 | > 90 | < 100 | 70 to 90 | C[C@H](NC(=O)[C@@H]1C[C@@H](O)CN1C(=O)[C@@H](n1cc([C@H]2CC[C@H](CN3CCN(c4ccc5c(c4)-n4c(nc(=O)c6c(Cl)cccc64)C5(C)C)CC3)CC2)nn1)C(C)(C)C)c1ccc(-c2scnc2C#CCN2CCOCC2)cc1 [Compound B135, (2S,4R)-1-((S)-2-(4-((1r,4S)-4-((4-(4-chloro-7,7-dimethyl-5-oxo-5,7-dihydroindolo[1,2-a]quinazolin-10-yl)piperazin-1-yl)methyl)cyclohexyl)-1H-1,2,3-triazol-1-yl)-3,3-dimethylbutanoyl)-4-hydroxy-N-((S)-1-(4-(4-(3-morpholinoprop-1-yn-1-yl)thiazol-5-yl)phenyl)ethyl)pyrrolidine-2-carboxamide]
6 | < 100 | > 90 | < 100 | 70 to 90 | CC(C)[C@@H](C(=O)N1C[C@H](O)C[C@H]1C(=O)N[C@@H](C)c1ccc(-c2scnc2C#CCN2CCOCC2)cc1)n1cc([C@H]2CC[C@H](CN3CCN(c4ccc5c(c4)-n4c(nc(=O)c6c(Cl)cccc64)C5(C)C)CC3)CC2)nn1 [Compound B136, (2S,4R)-1-((S)-2-(4-((1r,4S)-4-((4-(4-chloro-7,7-dimethyl-5-oxo-5,7-dihydroindolo[1,2-a]quinazolin-10-yl)piperazin-1-yl)methyl)cyclohexyl)-1H-1,2,3-triazol-1-yl)-3-methylbutanoyl)-4-hydroxy-N-((S)-1-(4-(4-(3-morpholinoprop-1-yn-1-yl)thiazol-5-yl)phenyl)ethyl)pyrrolidine-2-carboxamide]
7 | < 100 | > 90 | < 100 | < 50 | Cc1ncsc1-c1ccc([C@H](C)NC(=O)[C@@H]2C[C@@H](O)CN2C(=O)[C@H](C(C)C)n2cc(C3CCC(c4cccc5c4C(C)(C)c4nc(=O)c6c(Cl)cccc6n4-5)CC3)nn2)cc1 (stereo partly drawn) [Compound B137, (2S,4R)-1-((S)-2-(4-(4-(4-chloro-7,7-dimethyl-5-oxo-5,7-dihydroindolo[1,2-a]quinazolin-8-yl)cyclohexyl)-1H-1,2,3-triazol-1-yl)-3-methylbutanoyl)-4-hydroxy-N-((S)-1-(4-(4-methylthiazol-5-yl)phenyl)ethyl)pyrrolidine-2-carboxamide]
8 | < 100 | > 90 | < 100 | > 90 | Cc1ncsc1-c1ccc([C@H](CN2CCOCC2)NC(=O)[C@@H]2C[C@@H](O)CN2C(=O)[C@@H](c2cc(O[C@H]3CC[C@H](CN4CCN(c5ccc6c(c5)-n5c(nc(=O)c7c(Cl)cccc75)C65CCCCC5)CC4)CC3)no2)C(C)C)cc1 [Compound B138, (2S,4R)-1-((R)-2-(3-(((1r,4R)-4-((4-(4′-chloro-5′-oxo-5′H-spiro[cyclohexane-1,7′-indolo[1,2-a]quinazolin]-10′-yl)piperazin-1-yl)methyl)cyclohexyl)oxy)isoxazol-5-yl)-3-methylbutanoyl)-4-hydroxy-N-((R)-1-(4-(4-methylthiazol-5-yl)phenyl)-2-morpholinoethyl)pyrrolidine-2-carboxamide]
9 | < 100 | > 90 | < 100 | 70 to 90 | Cc1cc(C(C(=O)N2C[C@H](O)C[C@H]2C(=O)N[C@@H](CN2CCC(CN3CCC(c4cccc5c4C(C)(C)c4nc(=O)c6c(Cl)cccc6n4-5)CC3)CC2)c2ccc(-c3scnc3C)cc2)C(C)C)on1 (stereo partly drawn) [Compound B139, (2S,4R)—N—((R)-2-(4-((4-(4-chloro-7,7-dimethyl-5-oxo-5,7-dihydroindolo[1,2-a]quinazolin-8-yl)piperidin-1-yl)methyl)piperidin-1-yl)-1-(4-(4-methylthiazol-5-yl)phenyl)ethyl)-4-hydroxy-1-(3-methyl-2-(3-methylisoxazol-5-yl)butanoyl)pyrrolidine-2-carboxamide]
10 | < 100 | > 90 | < 100 | 50 to 69 | C[C@H](NC(=O)[C@@H]1C[C@@H](O)CN1C(=O)[C@@H](n1cc(C2CCC(CN3CCN(c4ccc5c(c4)-n4c(nc(=O)c6c(Cl)cccc64)C54CCCCC4)CC3)CC2)nn1)C(C)(C)C)c1ccc(-c2scnc2C#CCN2CCOCC2)cc1 (stereo partly drawn) [Compound B140, (2S,4R)-1-((S)-2-(4-((1s,4R)-4-((4-(4′-chloro-5′-oxo-5′H-spiro[cyclohexane-1,7′-indolo[1,2-a]quinazolin]-10′-yl)piperazin-1-yl)methyl)cyclohexyl)-1H-1,2,3-triazol-1-yl)-3,3-dimethylbutanoyl)-4-hydroxy-N-((S)-1-(4-(4-(3-morpholinoprop-1-yn-1-yl)thiazol-5-yl)phenyl)ethyl)pyrrolidine-2-carboxamide]
11 | < 100 | > 90 | 100 to 500 | < 50 | C[C@H](NC(=O)[C@@H]1C[C@@H](O)CN1C(=O)[C@@H](n1cc([C@H]2CC[C@H](CN3CCC(c4ccc5c(c4)-n4c(nc(=O)c6c(Cl)cccc64)C5(C)C)CC3)CC2)nn1)C(C)(C)C)c1ccc(-c2scnc2C#N)cc1 [Compound B141, (2S,4R)-1-((S)-2-(4-((1r,4S)-4-((4-(4-chloro-7,7-dimethyl-5-oxo-5,7-dihydroindolo[1,2-a]quinazolin-10-yl)piperidin-1-yl)methyl)cyclohexyl)-1H-1,2,3-triazol-1-yl)-3,3-dimethylbutanoyl)-N-((S)-1-(4-(4-cyanothiazol-5-yl)phenyl)ethyl)-4-hydroxypyrrolidine-2-carboxamide]
12 | 100 to 500 | 70 to 90 | > 1000 | < 50 | Cc1ncsc1-c1ccc2c(NC(=O)[C@@H]3C[C@@H](O)CN3C(=O)[C@@H](n3cc([C@H]4CC[C@H](CN5CCC(c6ccc7c(c6)-n6c(nc(=O)c8c(Cl)cccc86)C7(C)C)CC5)CC4)nn3)C(C)(C)C)nccc2c1 [Compound B143, (2S,4R)-1-((S)-2-(4-((1r,4S)-4-((4-(4-chloro-7,7-dimethyl-5-oxo-5,7-dihydroindolo[1,2-a]quinazolin-10-yl)piperidin-1-yl)methyl)cyclohexyl)-1H-1,2,3-triazol-1-yl)-3,3-dimethylbutanoyl)-4-hydroxy-N-(6-(4-methylthiazol-5-yl)isoquinolin-1-yl)pyrrolidine-2-carboxamide]
